# Assay results reported in PubChem BioAssay (NCI).
#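 Briefly, cells in 96-well plates were exposed to five compound concentrations for 48 h, and endpoints were estimated by linear interpolation. Definition used: TGI = concentration required for complete inhibition of growth.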
# Key:
# Assay in all cases: NCI-60 cell line screen, 48 h
# [1] = system: UACC-257 melanoma
# [2] = system: NCI/ADR-RES ovarian
# [3] = system: HCT-15 colon
# [4] = system: SK-MEL-28 melanoma
# [5] = system: M14 melanoma
# [6] = system: SR leukemia
# [7] = system: U251 CNS
# [8] = system: SF-539 CNS
# [9] = system: A549 NSCLC
# [10] = system: SN12C renal
# [11] = system: HT29 colon
# [12] = system: COLO 205 colon
# [13] = system: PC-3 prostate
# [14] = system: A498 renal
# [15] = system: EKVX NSCLC
# [16] = system: 786-0 renal
# [17] = system: CAKI-1 renal
# [18] = system: NCI-H460 lung
Compound,TGI [1] [µM],TGI [2] [µM],TGI [3] [µM],TGI [4] [µM],TGI [5] [µM],TGI [6] [µM],TGI [7] [µM],TGI [8] [µM],TGI [9] [µM],TGI [10] [µM],TGI [11] [µM],TGI [12] [µM],TGI [13] [µM],TGI [14] [µM],TGI [15] [µM],TGI [16] [µM],TGI [17] [µM],TGI [18] [µM]
COc1ccc2c(C)cc(N/N=C/c3sccc3C)nc2c1,22.4,26.2,20.3,35.8,24.1,87.3,51.9,27.5,29.4,20.4,12.5,17.9,31.9,–,–,–,–,–
OC(c1ccc(F)cc1)C(F)(F)c1nc(-c2ccccc2)no1 (centres undefined),43.4,> 100,63,> 100,32.7,–,29.2,–,–,39.8,33.4,–,63.4,39.2,63.7,44.2,72.1,74.7
COc1cc(C2c3cc4c(cc3OC3(O)COC(=O)C23)OCO4)cc(OC)c1OC (centres undefined),> 100,–,> 100,–,> 100,59.1,> 100,79.3,> 100,> 100,> 100,–,–,> 100,> 100,–,> 100,> 100
Cc1c2ccccc2c(CO)c2cc(F)c3ccccc3c12,> 100,–,–,> 100,–,70.7,50.3,> 100,> 100,33.3,49,32.2,–,> 100,> 100,–,79.4,–
COC(=O)[C@@]12CC[C@]1(C(=O)OC)C1C(C)=CC(=O)O[C@@]12C (some centres undefined),> 100,> 100,> 100,> 100,> 100,> 100,> 100,> 100,> 100,> 100,> 100,> 100,> 100,–,> 100,> 100,–,> 100
CCCCC(NC(=O)CC)C(=O)O (centres undefined),> 100,> 100,> 100,> 100,–,–,> 100,> 100,> 100,> 100,> 100,> 100,–,> 100,> 100,–,> 100,> 100
CN1C[C@H]2[C@@H](C1=O)[C@H](c1ccc([N+](=O)[O-])cc1)ON2C,> 100,> 100,> 100,> 100,> 100,> 100,> 100,–,> 100,> 100,> 100,> 100,> 100,–,–,–,> 100,> 100
OC(c1ccsc1)c1cc2ccccc2s1 (centres undefined),> 10,> 10,> 10,> 10,> 10,> 10,> 10,> 10,> 10,> 10,> 10,> 10,> 10,–,> 10,> 10,> 10,> 10
CC/C(Cl)=N\OC(=O)Nc1ccccc1OC(F)(F)F,32.8,35.5,> 24.2,41.5,23.3,–,> 57.8,31,51.5,14.2,44.4,3.79,33.5,45.4,15.9,23.5,3.33,44.2
CSC(=NC1CC(n2cc(C)c(=O)[nH]c2=O)OC1CO)NC#N (centres undefined),> 100,> 100,> 100,> 100,> 100,–,> 100,> 100,> 100,> 100,> 100,> 100,> 100,> 100,> 100,> 100,> 100,> 100
COc1cc(C2C(Cl)C(=O)N2NC(=O)c2ccc(NC(C)=O)cc2)cc(Br)c1O (centres undefined),> 100,–,–,> 100,–,> 100,> 100,> 100,> 100,–,> 100,> 100,–,–,–,–,–,> 100
Cc1[nH]c2ncn3ncnc3c2c1Cc1ccccc1,> 100,> 100,> 100,> 100,> 100,–,> 100,> 100,> 100,> 100,> 100,> 100,> 100,> 100,> 100,> 100,> 100,> 100
Cc1ccc(S(=O)(=O)c2c(N)c3nccn3c3nc4ccccc4nc23)cc1,> 100,–,> 100,> 100,> 100,> 100,> 100,> 100,> 100,> 100,–,> 100,–,–,> 100,> 100,> 100,> 100
Cc1c(C)c(S(=O)(=O)N(CCCCCN)OCCCN)c(C)c2c1OC(C)(C)CC2,38.6,41.7,42.5,65.4,> 100,–,> 36.9,> 100,> 100,> 100,28.7,> 74.8,18,40.9,25.3,29,> 59.1,19.7
COc1nc(/C=N/NC(N)=S)nc(OC)n1,> 100,–,–,> 100,> 100,> 100,> 100,> 100,> 100,> 100,> 100,> 100,–,> 100,> 100,> 100,> 100,> 100
CC(=O)Nc1ccc(C2=N/C(=C\c3ccc(Cl)c(Cl)c3)C(=O)O2)cc1,> 100,–,> 100,> 100,> 100,> 100,> 100,> 100,> 100,> 100,> 100,> 100,–,> 100,> 100,–,> 100,> 100
